ChEMBL document CHEMBL4152326 (2018)
Activity calls are given as the source filed them. No cut-off for these calls is given here.

Assays:
Pseudomonas aeruginosa [1] = test: Antimicrobial activity against Pseudomonas aeruginosa SR24 in presence of human apo-transferrin by broth microdilution method; type: functional
Pseudomonas aeruginosa [2] = test: Antimicrobial activity against AmpC overproducing Pseudomonas aeruginosa SR24-12 in presence of human apo-transferrin by broth microdilution method; type: functional
Pseudomonas aeruginosa [3] = test: Antimicrobial activity against IMP-1 producing Pseudomonas aeruginosa SR27001 in presence of human apo-transferrin by broth microdilution method; type: functional
Pseudomonas aeruginosa [4] = test: Antimicrobial activity against VIM-2 producing Pseudomonas aeruginosa SBRKM-28 in presence of human apo-transferrin by broth microdilution method; type: functional
Pseudomonas aeruginosa [5] = test: Antimicrobial activity against IMP-1 producing Pseudomonas aeruginosa SR27060 in presence of human apo-transferrin by broth microdilution method; type: functional
Pseudomonas aeruginosa [6] = test: Antimicrobial activity against Pseudomonas aeruginosa 27060deltaR1 harboring deletion of R1 plasmid in presence of human apo-transferrin by broth microdilution method; type: functional
[7] = test system: Stenotrophomonas maltophilia; test: Antimicrobial activity against L-1 producing Stenotrophomonas maltophilia SR21970 in presence of human apo-transferrin by broth microdilution method; type: functional
Acinetobacter baumannii = test: Antimicrobial activity against OXA-23/OXA-58 producing Acinetobacter baumannii SR27323 in presence of human apo-transferrin by broth microdilution method; type: functional
Klebsiella pneumoniae = test: Antimicrobial activity against KPC-2 producing Klebsiella pneumoniae ATCC BAA-1705 in presence of human apo-transferrin by broth microdilution method; type: functional
Escherichia coli = test: Antimicrobial activity against SHV-4 producing Escherichia coli ATCC BAA-200 in presence of human apo-transferrin by broth microdilution method; type: functional
[8] = Iron chelating activity in presence of cetyltrimethylammonium bromide at pH 5.5 by chromeazurol B dye based spectrophotometric method
Pseudomonas aeruginosa [9] = test: Antibacterial activity against Pseudomonas aeruginosa SR27001 infected in Jcl:ICR mouse systemic infection model assessed as increase in mouse survival rate administered iv 1 to 5 hrs post infection measured over 7 days; type: functional

CC(C)(O/N=C(\C(=O)N[C@@H]1C(=O)N2C(C(=O)[O-])=C(C[N+]3(CCNC(=O)c4ccc(O)c(O)c4)CCCC3)CS[C@H]12)c1csc(N)n1)C(=O)O
MIC (Pseudomonas aeruginosa [1]): 0.125 µg/mL | MIC (Pseudomonas aeruginosa [2]): 1 µg/mL | MIC (Pseudomonas aeruginosa [3]): 2 µg/mL | MIC (Pseudomonas aeruginosa [4]): 0.25 µg/mL | MIC (Pseudomonas aeruginosa [5]): 2 µg/mL | MIC (Pseudomonas aeruginosa [6]): 2 µg/mL | MIC [7]: 2 µg/mL | MIC (Acinetobacter baumannii): 16 µg/mL | MIC (Klebsiella pneumoniae): 0.5 µg/mL | MIC (Escherichia coli): 2 µg/mL | Activity [8]: Active

CC(C)(O/N=C(\C(=O)N[C@@H]1C(=O)N2C(C(=O)[O-])=C(C[N+]3(CCNC(=O)c4cc(=O)c(O)c[nH]4)CCCC3)CS[C@H]12)c1csc(N)n1)C(=O)O
MIC (Pseudomonas aeruginosa [1]): 0.25 µg/mL | MIC (Pseudomonas aeruginosa [2]): 0.25 µg/mL | MIC (Pseudomonas aeruginosa [3]): 4 µg/mL | MIC (Pseudomonas aeruginosa [4]): 0.25 µg/mL | MIC (Pseudomonas aeruginosa [5]): 4 µg/mL | MIC (Pseudomonas aeruginosa [6]): 1 µg/mL | MIC [7]: 0.25 µg/mL | MIC (Acinetobacter baumannii): 1 µg/mL | MIC (Klebsiella pneumoniae): 0.063 µg/mL | MIC (Escherichia coli): 1 µg/mL | ED50 (Pseudomonas aeruginosa [9]): 10.2 mg/kg | Activity [8]: Active

CC(C)(O/N=C(\C(=O)N[C@@H]1C(=O)N2C(C(=O)[O-])=C(C[N+]3(CCNC(=O)c4cc(Cl)c(O)c(O)c4Cl)CCCC3)CS[C@H]12)c1csc(N)n1)C(=O)O
MIC (Pseudomonas aeruginosa [1]): 0.125 µg/mL | MIC (Pseudomonas aeruginosa [2]): 0.25 µg/mL | MIC (Pseudomonas aeruginosa [3]): 0.5 µg/mL | MIC (Pseudomonas aeruginosa [4]): 0.063 µg/mL | MIC (Pseudomonas aeruginosa [5]): 2 µg/mL | MIC (Pseudomonas aeruginosa [6]): 0.5 µg/mL | MIC [7]: 0.125 µg/mL | MIC (Acinetobacter baumannii): 0.25 µg/mL | MIC (Klebsiella pneumoniae): 0.031 µg/mL | MIC (Escherichia coli): 0.5 µg/mL | Activity [8]: Active

Cc1c(C(=O)NCC[N+]2(CC3=C(C(=O)[O-])N4C(=O)[C@@H](NC(=O)/C(=N\OC(C)(C)C(=O)O)c5csc(N)n5)[C@H]4SC3)CCCC2)ccc(O)c1O
MIC (Pseudomonas aeruginosa [1]): 0.5 µg/mL | MIC (Pseudomonas aeruginosa [2]): 1 µg/mL | MIC (Pseudomonas aeruginosa [3]): 8 µg/mL | MIC (Pseudomonas aeruginosa [5]): 8 µg/mL | MIC (Pseudomonas aeruginosa [6]): 2 µg/mL | MIC [7]: 1 µg/mL | MIC (Acinetobacter baumannii): 8 µg/mL | MIC (Klebsiella pneumoniae): 0.25 µg/mL | MIC (Escherichia coli): 8 µg/mL | Activity [8]: Active

CC(C)(O/N=C(\C(=O)N[C@@H]1C(=O)N2C(C(=O)[O-])=C(C[N+]3(CCNC(=O)c4ccc(O)c(O)c4Cl)CCCC3)CS[C@H]12)c1csc(N)n1)C(=O)O [CEFIDEROCOL]
MIC (Pseudomonas aeruginosa [1]): 0.25 µg/mL | MIC (Pseudomonas aeruginosa [2]): 0.5 µg/mL | MIC (Pseudomonas aeruginosa [3]): 1 µg/mL | MIC (Pseudomonas aeruginosa [5]): 2 µg/mL | MIC (Pseudomonas aeruginosa [6]): 1 µg/mL | MIC (Acinetobacter baumannii): 1 µg/mL | MIC (Klebsiella pneumoniae): 0.063 µg/mL | MIC (Escherichia coli): 1 µg/mL | ED50 (Pseudomonas aeruginosa [9]): 5.48 mg/kg | Activity [8]: Active

CC(C)(O/N=C(\C(=O)N[C@@H]1C(=O)N2C(C(=O)[O-])=C(C[N+]3(CCNC(=O)c4cccc(O)c4O)CCCC3)CS[C@H]12)c1csc(N)n1)C(=O)O
MIC (Pseudomonas aeruginosa [1]): 0.063 µg/mL | MIC (Pseudomonas aeruginosa [2]): 0.25 µg/mL | MIC (Pseudomonas aeruginosa [3]): 4 µg/mL | MIC (Pseudomonas aeruginosa [5]): 8 µg/mL | MIC (Pseudomonas aeruginosa [6]): 0.5 µg/mL | MIC [7]: 1 µg/mL | MIC (Acinetobacter baumannii): 1 µg/mL | MIC (Klebsiella pneumoniae): 0.063 µg/mL | MIC (Escherichia coli): 2 µg/mL | Activity [8]: Active
